Experiments:
Assay type in all cases: cell-based, opossum
Cl-formate exchange = experiment: Cl- gradient-stimulated, DIDS-sensitive 14C-formate uptake (Cl-formate exchange) in OKP cells; conditions: Diprotin A
Experimental: (§1) The concentration dependence for Diprotin A inhibition of DPPIV activity was first evaluated. […] Diprotin A inhibited EIPA-sensitive Na/H exchange activity by 36.7±5.3%. To test the specificity of this inhibition, activity of another brush border transport process, Cl^−-formate exchange, measured as Cl^− gradient-stimulated, DIDS-sensitive uptake of 14C-formate was assayed.

NHE3 = experiment: 22Na uptake assay of EIPA-sensitive Na/H exchange (NHE3) activity in OKP cells; conditions: 1 mM Diprotin A, 20 min pre-incubation in NH3/NH4+ buffer pH 7.4
From the text: As an initial approach to examine the physiological role of the association of DPPIV with NHE3, Diprotin A, a specific competitive inhibitor that binds to the active site of DPPIV, affects NHE3 activity in OKP cells was studied. OKP is a line of opossum proximal tubule cells that has transport properties very similar to the native proximal tubule and is therefore commonly used as an in vitro model for the mammalian proximal tubule.
as §1

DPPIV = experiment: Colorimetric DPPIV enzyme assay with glycylproline p-nitroanilide tosylate as substrate in OKP cells; conditions: 1 mM Diprotin A
Experimental: as §1

## Ile-Pro-Ile [Diprotin A]
Cl-formate exchange
  effect on Cl-formate exchange activity: no significant effect
NHE3
  inhibition of EIPA-sensitive Na/H exchange activity: 36.7±5.3%
DPPIV
  inhibition of DPPIV activity in OKP cells: completely inhibited

Reference: US20020037829A1, “Use of DPPIV inhibitors as diuretic and anti-hypertensive agents” (priority 2000, published 2002)
